Source: PubChem BioAssay (NCI)
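GI50 is the concentration that inhibits growth by half. TGI marks complete inhibition of growth.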

Experiments:
Assay in all cases: NCI-60 cell line screen, 384-well format
[1] = system: NCI-H23 lung
[2] = system: NCI-H460 NSCLC
[3] = system: U251 glioblastoma
[4] = system: SK-MEL-28 melanoma
[5] = system: OVCAR-5 ovarian
[6] = system: HT29 colon
[7] = system: HCT-116 colon
[8] = system: IGROV1 ovarian
[9] = system: MCF7 breast
[10] = system: MOLT-4 leukemia
[11] = system: NCI-H322M lung
[12] = system: SN12C renal
[13] = system: 786-0 renal

SMILES	GI50 [1] [µM]	TGI [1] [µM]	GI50 [2] [µM]	TGI [2] [µM]	GI50 [3] [µM]	TGI [3] [µM]	GI50 [4] [µM]	TGI [4] [µM]	GI50 [5] [µM]	TGI [5] [µM]	GI50 [6] [µM]	TGI [6] [µM]	GI50 [7] [µM]	TGI [7] [µM]	GI50 [8] [µM]	TGI [8] [µM]	GI50 [9] [µM]	TGI [9] [µM]	GI50 [10] [µM]	TGI [10] [µM]	other results
CC(C)n1c(=O)n(C)c2cnc3cc(F)c(-c4ccc(OCCCN5CCCCC5)nc4)cc3c21	> 77.1	> 100	18.6	> 100	> 70.8	> 100	> 100	> 100	> 100	> 100	22.3	> 87.2	21.7	> 100	> 100	> 100	> 56.4	> 100	5.66	> 40.4	GI50 [11]: > 100 µM; TGI [11]: > 100 µM; GI50 [12]: 25.8 µM; TGI [12]: > 100 µM; GI50 [13]: > 77.4 µM; TGI [13]: > 100 µM
CS(=O)(=O)c1ccc(Oc2cc(F)cc(C#N)c2)c2c1[C@H](O)C(F)(F)C2	> 100	> 100	> 100	> 100	> 100	> 100	> 100	> 100	> 100	> 100	> 100	> 100	> 100	> 100	> 100	> 100	> 100	> 100	> 86.1	> 100	GI50 [11]: > 100 µM; TGI [11]: > 100 µM; GI50 [12]: > 100 µM; TGI [12]: > 100 µM; GI50 [13]: > 100 µM; TGI [13]: > 100 µM
